One assay deals with TEAD1 (Homo sapiens, UniProt P28347). Description: TEAD thermal shift assay (TSA). The class given is binding. The text has this:
(§1) Thermal shift assay (TSA) is a biophysical method to evaluate stability of proteins with change in temperature. The assay measures thermal denaturation temperature in varying conditions such as different drug concentration. For this example, fluorogenic dye was used that bind to unfolded proteins. SYPRO Orange binds non-specifically to hydrophobic surfaces, and water strongly quenches its fluorescence. When the protein unfolds, the exposed hydrophobic surfaces bind the dye, resulting in an increase in fluorescence by excluding water. Detergent micelles also bind the dye and increase background noise dramatically. Binding of small molecules to proteins leads to a stabilization against to thermal denaturation with the degree of thermal stabilization proportional to the strength of binding.
(§2) The study described in this example investigated the change in melting temperature (ΔTm) of TEAD isoforms 1˜4 when treated with TEAD inhibitors. Compound 1-1-a known strong TEAD1 and weak TEAD2 inhibitor; as well as Compound 1-4-a pan-TEAD inhibitor were used as controls.
(§3) Tris-HCL was dissolved in 5 mL of Cell culture grade water and allowed to dissolve completely. The pH was adjusted to 8 using NaOH. Additional assay buffer components were added in the order listed above. The buffer was mixed slowly.
(§4) Assay buffer was prepared according to the procedures outlined above and dispensed into test wells. Spyro orange was added to a concentration of 5× in the assay buffer, followed by test compound stock solution which was added to a concentration of 10 μM or 30 μM in the assay buffer.
(§5) The melt cycle was performed in Bio-RAD PCR instrument from 20-95° C. with ramp rate of 1° C./min.

The next assay has as its target TEAD2 (Homo sapiens, UniProt Q15562). Description: TEAD thermal shift assay (TSA). It is filed as binding.
Text: as §1, §2, §3, §4, §5

In the next assay the target is TEAD3 (Homo sapiens, UniProt Q99594). The assay can be described thus: TEAD thermal shift assay (TSA). The class given is binding.
TEAD3, sequence (Q99594 whole entry): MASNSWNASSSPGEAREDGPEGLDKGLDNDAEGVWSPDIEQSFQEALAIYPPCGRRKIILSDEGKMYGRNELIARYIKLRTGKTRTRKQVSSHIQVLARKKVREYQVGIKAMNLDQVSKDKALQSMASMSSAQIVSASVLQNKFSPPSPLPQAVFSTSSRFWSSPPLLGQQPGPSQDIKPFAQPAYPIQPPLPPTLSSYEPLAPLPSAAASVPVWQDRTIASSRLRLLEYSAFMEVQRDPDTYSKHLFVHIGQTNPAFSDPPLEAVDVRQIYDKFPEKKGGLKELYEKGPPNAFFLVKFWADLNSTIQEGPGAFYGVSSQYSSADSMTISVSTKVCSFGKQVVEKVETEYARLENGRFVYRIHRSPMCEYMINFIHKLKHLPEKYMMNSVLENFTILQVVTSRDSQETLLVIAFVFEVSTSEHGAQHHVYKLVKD
Text: as §1, §2, §3, §4, §5

The target in the next assay is TEAD4 (Homo sapiens, UniProt Q15561). The assay can be described thus: TEAD thermal shift assay (TSA). The class given is binding.
TEAD4, sequence (Q15561 whole entry): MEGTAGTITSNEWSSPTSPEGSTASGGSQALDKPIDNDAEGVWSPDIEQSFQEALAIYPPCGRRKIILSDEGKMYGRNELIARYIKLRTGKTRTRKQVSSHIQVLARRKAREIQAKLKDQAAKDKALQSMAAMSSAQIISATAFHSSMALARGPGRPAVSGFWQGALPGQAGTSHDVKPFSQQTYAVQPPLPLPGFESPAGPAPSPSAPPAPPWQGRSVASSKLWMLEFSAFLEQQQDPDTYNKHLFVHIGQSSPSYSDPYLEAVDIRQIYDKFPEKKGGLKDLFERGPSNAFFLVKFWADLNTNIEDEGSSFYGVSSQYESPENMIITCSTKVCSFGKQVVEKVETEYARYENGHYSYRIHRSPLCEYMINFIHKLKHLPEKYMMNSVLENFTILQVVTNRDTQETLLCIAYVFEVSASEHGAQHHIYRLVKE
Text: as §1, §2, §3, §4, §5

For assay [1], the system named is NCI-H226 cells. Description: Proliferation and cell viability, CellTiter-Glo 2.0 (CTG) assay. The class given is cell-based. Particulars: 144 hrs. As for the experimental part: (§6) Cell proliferation of a TEAD dependent NF2-null mesothelioma cell line, NCI-H226, and a TEAD-non-dependent mesothelioma cell line, NCI-H28 was assayed using two different protocols: • a) CellTiter-Glo 2.0 (Promega #G9243). The effect of the TEAD inhibitors disclosed herein on cell proliferation was determined in TEAD1-genetically dependent cell line NCI-H226 (responder cell line) and TEAD-independent cell lines (NCI-H23, HEK293T), as non-responder, negative control. Cells were seeded in 96-well plates (Thermo Scientific #167008) in growth media (RPMI-1640, Gibco #61870-010) for NCI-H226 and NCI-H23 or DMEM (Gibco #31966-021, HEK293T) with 10% Heat Inactivated Fetal Bovine Serum (Gibco 10500-064) at 800 (NCI-H226 and HEK-293T) or 2000 (NCI-H23) cells per well at 37° C., 5% CO2, humidified incubator; 24 hours later, fresh growth media containing test compound or DMSO vehicle was added and incubated with the cells for 144 hrs. TEAD inhibitor stocks were made at a 1000× fold excess in DMSO, and a dose response test compound dose range of 10,000 to 0.1 nM was used. Each treatment was carried out in triplicate. After 144 hrs of treatment, relative cell viability numbers were determined using the CellTiter-Glo 2.0 assay following the manufacturer's instructions. Test plates and CellTiter-Glo 2.0 reagent were allowed to equilibrate to room temperature. CellTiter-Glo 2.0 reagent was added at 1:1 reagent to media ratio to the 96-well cell plates, plates were placed on a plate shaker for 2 minutes and then incubated at room temperature for a further 10 minutes to allow complete cell lysis to occur. The mix was then transferred to white, 96-well luminometer assay plates (Greiner Bio One #655075). Luminescence was quantified using a CLARIOStar Plus multi-mode plate reader (BMG Labtech) in luminescence detection mode with the recommended settings (ultra-Glo pre-set: emission 545-50 nm with autofocus and enhanced dynamic range on). Relative cell density was expressed as a function of inhibitor concentration, with respect to DMSO-only control wells. Data where plotted using GraphPad Prism and IC50 values for the biological effect were calculated using the EC50 non-linear fit function using a sigmoidal, 4-parameter logistic, least squares fit with no constraints. • b) Cell Titer One (Promega, #G3582). The effect of the TEAD inhibitors disclosed herein on cell proliferation was also determined using the Promega Substrate Cell Titer Aqueous One Solution Reagent. The TEAD inhibitors were evaluated for the effects on cell proliferation responder (H226) and non-responder negative control cancer cell lines (CAMA1, H28), as well as non-transformed normal human cells (HUVEC, NHDF). Dissociated cells were resuspend in media (depending on cell line, either in DMEM, RPMI, or EMEM all with 10% FBS, with gentamicin as an antibiotic). Cells were seeded at 100 μL/well at 750 cells per well in 96-well plates and allowed to settle and attach. After an incubation of 24 hrs (37° C., 5% CO2, humidified incubator), 100 μL of test compound-containing media was added. A dilution series of 2000× concentrated stock of test compounds was prepared in DMSO, for final concentrations from 0.1 to 10,000 nM. After addition of test compound-containing media, cells were incubated for 6 days at 37° C., 5% CO2, humidified incubators). To measure cell density, 20 μL of Promega Substrate Cell Titer 96 Aqueous One Solution Reagent (Promega, #G3582) to each well was added according to the manufacturer's instructions. Plates were incubated at 37° C. for usually 3-8 hrs, to reach in the control cells (without compound) an OD of 1.5 at 490 nm. The OD was measured using Vmax [Molecular Devices] spectrophotometer plate reader. Media only-wells were used as background controls and cell densities normalized to DMSO vehicle control. ECs were taken as the concentration achieving 50% of maximal growth inhibition.

The subject of assay [2] is NCI-H226 cells. Description: Proliferation, Cell Titer One assay. It is filed as cell-based. Particulars: 6 days. The protocol: as §6
The next assay has as its system NCI-H23 cells. Description: Proliferation and cell viability, CellTiter-Glo 2.0 (CTG) assay. It is filed as cell-based. The note with it: 144 hrs. As for the experimental part: as §6
The mark [3] stands for this setting: ratio of protein to compound 1:1.
Setting [4] is: ratio of protein to compound 1:3.
The mark [5] stands for this setting: Homo sapiens, NCI-H226, 144 h, H226-responder cell line.
Setting [6] is: Homo sapiens, NCI-H23, H23-non-responder cell line.

TEAD1, sequence (P28347 whole entry): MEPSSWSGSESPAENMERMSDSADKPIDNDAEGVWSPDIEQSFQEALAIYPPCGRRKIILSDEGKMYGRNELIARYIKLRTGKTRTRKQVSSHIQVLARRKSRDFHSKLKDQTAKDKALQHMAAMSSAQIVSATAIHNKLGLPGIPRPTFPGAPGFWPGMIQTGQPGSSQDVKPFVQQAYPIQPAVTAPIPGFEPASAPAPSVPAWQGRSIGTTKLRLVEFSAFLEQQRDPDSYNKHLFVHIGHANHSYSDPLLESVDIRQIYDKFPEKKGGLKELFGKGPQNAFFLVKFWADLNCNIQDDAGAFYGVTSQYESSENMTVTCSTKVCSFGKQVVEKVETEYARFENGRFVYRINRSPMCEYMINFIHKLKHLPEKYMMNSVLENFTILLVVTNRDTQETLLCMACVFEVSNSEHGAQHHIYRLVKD
TEAD2, sequence (Q15562 whole entry): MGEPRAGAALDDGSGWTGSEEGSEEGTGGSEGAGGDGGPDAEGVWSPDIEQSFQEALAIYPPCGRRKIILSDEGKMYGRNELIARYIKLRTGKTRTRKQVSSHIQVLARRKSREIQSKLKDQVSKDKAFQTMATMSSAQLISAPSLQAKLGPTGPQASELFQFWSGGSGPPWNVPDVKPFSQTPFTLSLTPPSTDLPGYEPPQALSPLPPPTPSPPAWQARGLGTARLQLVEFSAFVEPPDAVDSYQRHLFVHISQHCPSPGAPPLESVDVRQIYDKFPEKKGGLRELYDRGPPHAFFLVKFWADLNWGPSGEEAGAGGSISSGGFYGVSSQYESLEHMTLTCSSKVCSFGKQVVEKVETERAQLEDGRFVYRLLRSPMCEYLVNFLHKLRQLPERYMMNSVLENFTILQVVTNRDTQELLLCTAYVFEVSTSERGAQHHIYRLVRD

Take `C[C@H](NC(=O)c1ccc2c(-c3ccc(C(F)(F)F)cc3)cccc2c1)c1cccc(N)n1` [Compound 1-4, reference compound]: the “TEAD1 ΔTm” value was found to be 10 °C at TEAD1 (setting [3]) and 12 °C at TEAD1 (setting [4]). In addition, the “thermal shift / binding across TEAD isoforms, in words” value at TEAD1 (summary of Table 14 over TEAD1-4) is reported as “thermal shifts for all four TEAD isoforms”. The “TEAD2 ΔTm” value on TEAD2 (setting [3]) amounted to 5 °C; on TEAD2 (setting [4]), 7 °C. Further, the “TEAD3 ΔTm” value was determined as 5 °C on TEAD3 (setting [3]) and 9 °C at TEAD3 (setting [4]). Moreover, the “TEAD4 ΔTm” value on TEAD4 (setting [3]) turned out to be 5 °C; at TEAD4 (setting [4]), 9 °C.

In the case of `CNC(=O)c1cnc2c(C3=CCC(C(F)(F)F)CC3)cccc2c1` (stereo not shown) [Compound 38, N-methyl-8-(4-(trifluoromethyl)cyclohex-1-en-1-yl)quinoline-3-carboxamide], the half-inhibitory concentration (IC50) in the assay with NCI-H226 cells [1] (setting [5]) was under 200 nM; with NCI-H226 cells [2] (Homo sapiens, NCI-H226, 144 h), 200 to 1000 nM.

With `C[C@H](NC(=O)c1cnc2c(C3=CCC(C)(C)CC3)cccc2c1)c1ccccn1` [Compound 31, (S)-8-(4,4-dimethylcyclohex-1-en-1-yl)-N-(1-(pyridin-2-yl)ethyl)quinoline-3-carboxamide], the IC50 with NCI-H226 cells [1] (setting [5]) is under 200 nM; with NCI-H226 cells [2] (Homo sapiens, NCI-H226, 144 h), over 1000 nM.

For the compound `O=C(NCCO)c1cnc2c(C3=CCC(C(F)(F)F)CC3)cccc2c1` (stereo not shown) [Compound 39, N-(2-hydroxyethyl)-8-(4-(trifluoromethyl)cyclohex-1-en-1-yl)quinoline-3-carboxamide], the IC50 with NCI-H226 cells [1] (setting [5]) is under 200 nM; with NCI-H226 cells [2] (Homo sapiens, NCI-H226, 144 h), under 200 nM.

As to `COCCNC(=O)c1cnc2c(C3=CCC(C(F)(F)F)CC3)cccc2c1` (stereo not shown) [Compound 40, N-(2-methoxyethyl)-8-(4-(trifluoromethyl)cyclohex-1-en-1-yl)quinoline-3-carboxamide], the IC50 with NCI-H226 cells [1] (setting [5]) was under 200 nM; with NCI-H226 cells [2] (Homo sapiens, NCI-H226, 144 h) it was 200 to 1000 nM.

In the case of `CC(C)NC(=O)c1cnc2c(C3=CCC(F)(F)CC3)cccc2c1` [Compound 26, 8-(4,4-difluorocyclohex-1-en-1-yl)-N-isopropylquinoline-3-carboxamide], the IC50 in the assay with NCI-H226 cells [1] (Homo sapiens, NCI-H226, H226-responder cell line) is under 200 nM; with NCI-H226 cells [2] (Homo sapiens, NCI-H226, 144 h), under 200 nM.

`C[C@H](NC(=O)c1cnc2c(C3=CCC(F)(F)CC3)cccc2c1)c1ccccn1` [Compound 27, (S)-8-(4,4-difluorocyclohex-1-en-1-yl)-N-(1-(pyridin-2-yl)ethyl)quinoline-3-carboxamide]: the half-maximal inhibitory concentration (IC50) in the assay on NCI-H226 cells [1] (setting [5]) was under 200 nM; with NCI-H226 cells [2] (Homo sapiens, NCI-H226, 144 h), under 200 nM.

Take `O=C(NCc1ncco1)c1cnc2c(C3=CCC(F)(F)CC3)cccc2c1` [Compound 29, 8-(4,4-difluorocyclohex-1-en-1-yl)-N-(oxazol-2-ylmethyl)quinoline-3-carboxamide]: the concentration for half-maximal inhibition (IC50) with NCI-H226 cells [1] (setting [5]) was 200 to 1000 nM; in the assay on NCI-H226 cells [2] (Homo sapiens, NCI-H226, 144 h), over 1000 nM.

In the case of `CC(C)NC(=O)c1cnc2c(C3=CCC(C)(C)CC3)cccc2c1` [Compound 30, 8-(4,4-dimethylcyclohex-1-en-1-yl)-N-isopropylquinoline-3-carboxamide], the IC50 was under 200 nM in the assay with NCI-H226 cells [1] (setting [5]) and under 200 nM with NCI-H226 cells [2] (Homo sapiens, NCI-H226, 144 h).

For `O=C(NCc1ccccn1)c1cnc2c(C3=CCC(C(F)(F)F)CC3)cccc2c1` (stereo not shown) [Compound 5, N-(pyridin-2-ylmethyl)-8-(4-(trifluoromethyl)cyclohex-1-en-1-yl)quinoline-3-carboxamide], the concentration for half-maximal inhibition (IC50) was under 200 nM with NCI-H226 cells [1] (setting [5]); over 1000 nM in the assay with NCI-H23 cells (setting [6]); under 200 nM in the assay on NCI-H226 cells [2] (Homo sapiens, NCI-H226, 144 h).

The compound `C[C@@H](CO)NC(=O)c1cnc2c(C3=CCCCC3)cccc2c1` [Compound 36, (S)-8-(cyclohex-1-en-1-yl)-N-(1-hydroxypropan-2-yl)quinoline-3-carboxamide] registered an IC50 in the assay on NCI-H226 cells [2] (Homo sapiens, NCI-H226, 144 h) of over 1000 nM.

`O=C(NCc1ncco1)c1cnc2c(C3=CCCCC3)cccc2c1` [Compound 37, 8-(cyclohex-1-en-1-yl)-N-(oxazol-2-ylmethyl)quinoline-3-carboxamide] gave an IC50 in the assay on NCI-H226 cells [2] (Homo sapiens, NCI-H226, 144 h) of over 1000 nM.

In the case of `O=C(NCc1ncco1)c1cnc2c(C3=CCC(C(F)(F)F)CC3)cccc2c1` (single isomer, unassigned) [Compound 13, N-(oxazol-2-ylmethyl)-8-(4-(trifluoromethyl)cyclohex-1-en-1-yl)quinoline-3-carboxamide], the IC50 in the assay on NCI-H226 cells [1] (H226-responder cell line) is under 200 nM; in the assay with NCI-H23 cells (H23-non-responder cell line), over 1000 nM; in the assay on NCI-H226 cells [2], under 200 nM.

Turning to `O=C(NCc1ncco1)c1cnc2c(C3=CCC(C(F)(F)F)CC3)cccc2c1` (single isomer, unassigned) [Compound 12, N-(oxazol-2-ylmethyl)-8-(4-(trifluoromethyl)cyclohex-1-en-1-yl)quinoline-3-carboxamide], the half-inhibitory concentration (IC50) in the assay on NCI-H226 cells [1] (setting [5]) was under 200 nM; in the assay with NCI-H23 cells (setting [6]), over 1000 nM; in the assay with NCI-H226 cells [2] (Homo sapiens, NCI-H226, 144 h), 200 to 1000 nM.

In turn, `C[C@H](NC(=O)c1cnc2c(C3=CCCCC3)cccc2c1)c1ccccn1` [Compound 35, (S)-8-(cyclohex-1-en-1-yl)-N-(1-(pyridin-2-yl)ethyl)quinoline-3-carboxamide] gave an IC50 in the assay with NCI-H226 cells [2] (Homo sapiens, NCI-H226, 144 h) of 200 to 1000 nM.

The values above are taken from patent US20250223306A1, “TEAD INHIBITORS AND METHODS OF USE” (Sporos BioDiscovery, Inc., priority 2022, published 2025).
